Among the data in ChEMBL document CHEMBL3352103, “Investigations of amide bond variation and biaryl modification in analogues of α7 nAChR agonist SEN12333” (Eur J Med Chem, 2014) are EC50 and Ki values, retold here.

Broadly, the pEC50 is the EC50 on a negative log10 scale, so that one unit is a factor of ten. The term pKi denotes the negative decadic logarithm of the Ki, by convention in mol/L.

Each structure is given as a SMILES string. pEC50, pKi: −log10 of the molar value.

Assay [1] addresses T1, Neuronal acetylcholine receptor subunit alpha-7 (Rattus norvegicus, UniProt Q05941). As to the kind of experiment: Agonist activity at rat nAChR alpha7 expressed in GH4C1 cells by fluorescent calcium assay. The format is cell-based, GH4-C1. Particulars: for pEC50: read-out: EC50; for EC50: gh4-c1; call rule not given here.
The target of assay [2] is Neuronal acetylcholine receptor; alpha4/beta2 (Rattus norvegicus, UniProt P09483+P12390). As to the kind of experiment: Displacement of [3H]EB from rat nAChR alpha4beta2 expressed in HEK293 cell membranes by liquid scintillation counting. Particulars: for pKi: read-out: Ki; for Ki: hek293. For orientation: Displacement assays read how much labelled ligand stays bound in the presence of the test substance.
Chain of Neuronal acetylcholine receptor; alpha4/beta2 (P09483 whole entry): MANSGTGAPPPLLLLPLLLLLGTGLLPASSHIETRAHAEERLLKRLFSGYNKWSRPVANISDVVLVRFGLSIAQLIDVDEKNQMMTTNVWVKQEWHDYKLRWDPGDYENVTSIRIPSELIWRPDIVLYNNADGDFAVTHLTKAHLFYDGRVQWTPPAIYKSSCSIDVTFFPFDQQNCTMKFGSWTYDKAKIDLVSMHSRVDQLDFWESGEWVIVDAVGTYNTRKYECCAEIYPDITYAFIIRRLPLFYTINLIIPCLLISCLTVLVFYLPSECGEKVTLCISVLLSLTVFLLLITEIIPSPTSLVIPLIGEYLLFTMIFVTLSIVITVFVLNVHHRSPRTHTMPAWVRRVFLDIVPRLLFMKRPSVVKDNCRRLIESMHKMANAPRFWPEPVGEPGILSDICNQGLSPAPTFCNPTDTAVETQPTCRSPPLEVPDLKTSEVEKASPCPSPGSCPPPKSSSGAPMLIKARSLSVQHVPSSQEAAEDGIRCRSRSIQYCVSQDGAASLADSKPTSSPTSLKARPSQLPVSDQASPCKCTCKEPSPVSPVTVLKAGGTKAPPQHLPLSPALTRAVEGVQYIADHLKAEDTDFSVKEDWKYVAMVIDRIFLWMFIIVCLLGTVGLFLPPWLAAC
Chain of Neuronal acetylcholine receptor; alpha4/beta2 (P12390 whole entry): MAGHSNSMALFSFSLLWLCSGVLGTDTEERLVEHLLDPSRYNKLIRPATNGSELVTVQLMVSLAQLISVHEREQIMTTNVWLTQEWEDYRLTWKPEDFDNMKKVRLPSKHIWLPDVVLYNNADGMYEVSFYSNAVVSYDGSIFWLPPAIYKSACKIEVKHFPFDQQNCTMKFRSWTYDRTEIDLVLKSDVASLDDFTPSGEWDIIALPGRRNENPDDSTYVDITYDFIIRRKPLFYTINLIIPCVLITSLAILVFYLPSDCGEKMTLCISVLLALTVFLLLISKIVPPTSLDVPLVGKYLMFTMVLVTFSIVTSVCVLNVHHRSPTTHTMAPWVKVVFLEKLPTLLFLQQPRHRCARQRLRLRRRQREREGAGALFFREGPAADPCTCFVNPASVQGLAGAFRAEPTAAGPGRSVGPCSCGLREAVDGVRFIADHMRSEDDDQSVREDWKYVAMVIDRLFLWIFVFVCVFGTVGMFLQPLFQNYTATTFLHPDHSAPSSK

The target in assay [3] is T1, Neuronal acetylcholine receptor subunit alpha-7. As to the kind of experiment: Displacement of [3H]EB from rat nAChR alpha7 expressed in HEK293 cell membranes by liquid scintillation counting.
Assay [4] addresses Neuronal acetylcholine receptor; alpha3/beta4 (Rattus norvegicus, UniProt P04757+P12392). As to the kind of experiment: Displacement of [3H]EB from rat nAChR alpha3beta4 expressed in HEK293 cell membranes by liquid scintillation counting. Particulars: for pKi: read-out: Ki.

T1 sequence (Q05941 whole entry): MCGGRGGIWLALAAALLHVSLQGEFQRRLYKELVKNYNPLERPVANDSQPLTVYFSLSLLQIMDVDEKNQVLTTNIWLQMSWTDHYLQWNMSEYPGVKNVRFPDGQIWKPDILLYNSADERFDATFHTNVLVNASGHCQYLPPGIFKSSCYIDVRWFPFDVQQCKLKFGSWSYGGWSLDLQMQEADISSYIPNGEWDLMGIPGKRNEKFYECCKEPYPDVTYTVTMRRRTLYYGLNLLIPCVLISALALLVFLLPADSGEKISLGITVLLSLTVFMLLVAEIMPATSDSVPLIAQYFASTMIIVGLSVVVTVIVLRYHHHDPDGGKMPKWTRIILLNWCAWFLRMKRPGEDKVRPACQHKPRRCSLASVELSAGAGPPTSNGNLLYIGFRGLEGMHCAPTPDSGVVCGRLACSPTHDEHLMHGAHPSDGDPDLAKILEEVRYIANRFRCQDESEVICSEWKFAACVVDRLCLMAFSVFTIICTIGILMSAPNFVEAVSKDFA
Chain of Neuronal acetylcholine receptor; alpha3/beta4 (P04757 whole entry): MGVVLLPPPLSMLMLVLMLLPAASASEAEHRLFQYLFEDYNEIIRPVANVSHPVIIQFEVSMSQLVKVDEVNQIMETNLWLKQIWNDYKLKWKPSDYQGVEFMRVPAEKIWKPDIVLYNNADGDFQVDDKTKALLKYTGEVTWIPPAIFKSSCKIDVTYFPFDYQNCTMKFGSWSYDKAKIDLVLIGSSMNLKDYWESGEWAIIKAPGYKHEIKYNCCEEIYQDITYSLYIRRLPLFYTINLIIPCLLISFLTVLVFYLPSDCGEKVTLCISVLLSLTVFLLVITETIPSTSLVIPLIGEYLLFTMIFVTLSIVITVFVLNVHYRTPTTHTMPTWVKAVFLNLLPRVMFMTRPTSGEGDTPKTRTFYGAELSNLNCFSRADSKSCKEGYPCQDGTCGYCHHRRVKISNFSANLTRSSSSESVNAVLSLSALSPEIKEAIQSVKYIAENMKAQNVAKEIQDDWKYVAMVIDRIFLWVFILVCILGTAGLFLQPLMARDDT
Chain of Neuronal acetylcholine receptor; alpha3/beta4 (P12392 whole entry): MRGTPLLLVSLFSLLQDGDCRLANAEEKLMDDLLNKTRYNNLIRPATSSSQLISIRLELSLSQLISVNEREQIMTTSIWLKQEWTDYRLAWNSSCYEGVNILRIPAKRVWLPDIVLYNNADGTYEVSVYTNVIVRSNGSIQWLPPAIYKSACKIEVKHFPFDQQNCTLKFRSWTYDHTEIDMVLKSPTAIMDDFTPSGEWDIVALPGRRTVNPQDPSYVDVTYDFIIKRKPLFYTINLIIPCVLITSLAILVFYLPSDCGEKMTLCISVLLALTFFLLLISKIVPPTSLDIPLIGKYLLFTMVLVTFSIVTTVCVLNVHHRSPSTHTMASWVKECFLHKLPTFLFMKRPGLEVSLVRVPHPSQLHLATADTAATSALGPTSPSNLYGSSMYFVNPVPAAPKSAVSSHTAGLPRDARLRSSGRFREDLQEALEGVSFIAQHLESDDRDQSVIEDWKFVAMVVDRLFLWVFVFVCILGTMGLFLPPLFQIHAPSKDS

For the molecule `O=C(NCCCCN1CCOCC1)c1ccc(-c2ccccc2)cc1`, the pEC50 in assay [1] is 5.62. In addition, the pKi in assay [2] was less than 5.00; in assay [3], 5.74; in assay [4], less than 5.00.

Take `c1ccc(-c2ccc(-n3nnnc3CCCCN3CCOCC3)cc2)cc1`: the EC50 entry in assay [1] is recorded as “Not Active”. The Ki entry in assay [2] is on record as “Not Active”. The negative logarithm of the Ki (pKi) is 3.63 in assay [3] and less than 3.00 in assay [4].

For `O=C(CCCCN1CCOCC1)Nc1ccc(-c2ccccc2)cc1`, the pEC50 in assay [1] was 5.76. Besides, the values for the negative-log Ki (pKi) in assay [2], in assay [3] and in assay [4] were less than 5.00, 5.64 and less than 5.00, respectively.

Take `O=C(CCCCN1CCOCC1)Nc1ccc(-c2cccnc2)cc1`: the pEC50 in assay [1] is 6.07. Further, the pKi is less than 5.00 in assay [2], 6.17 in assay [3] and less than 5.00 in assay [4].

For `c1ccc(-c2ccc(-c3nnnn3CCCCN3CCOCC3)cc2)cc1`, the EC50 result in assay [1] is recorded as “Not Active”. Moreover, the Ki entry in assay [2] is listed as “Not Active”. In addition, the values for the negative-log Ki (pKi) in assay [3] and in assay [4] were 3.81 and less than 4.00, respectively.

Take `c1cncc(-c2ccc(-n3nnnc3CCCCN3CCOCC3)cc2)c1`: in assay [1], the EC50 result was “Not Active”. Moreover, the Ki result in assay [2] and in assay [4] (hek293) was “Not Active” each time. The molecule further had a pKi in assay [3] of 3.67.

On to `O=C(NCCCCN1CCOCC1)c1ccc(-c2cccnc2)cc1`, for which the EC50 entry in assay [1] was “Not Active”. For the same molecule, the pKi was less than 5.00 in assay [2], 4.96 in assay [3] and less than 5.00 in assay [4].

Consider `c1cncc(-c2ccc(-c3nnnn3CCCCN3CCOCC3)cc2)c1`, for which the EC50 entry in assay [1] is recorded as “Not Active”. In addition, the Ki result in assay [2] is given as “Not Active”. In addition, the pKi was 3.78 in assay [3] and less than 3.00 in assay [4].
